Data published in US20230322789A1, “PYRAZOLOPYRIDAZINONE COMPOUND, AND PHARMACEUTICAL COMPOSITION AND USE THEREOF” (BroadenBio Co., Ltd., priority 2020, published 2023).
Structures can show the parent of a compound that is named as a salt.

How the values were obtained:
Human Jurkat-E6-1 cells = test: Measurement of IL-2 secretion of Jurkat cells by ELISA; assay type: cell-based; settings: anti-CD3/anti-CD28 stimulation 24 hours; for activity at 1 µM: test compound 1.0 μM
Method in brief: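 Jurkat-E6-1 cells pre-incubated with compound for 30 min at 37° C, then stimulated 24 h with plate-bound anti-CD3 plus soluble anti-CD28. Secreted IL-2 in medium quantified by sandwich ELISA against a standard curve; expressed as percent of DMSO-treated cells.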

HPK1 = HPK1 (Homo sapiens (Human), UniProt Q92918); test: HPK1 kinase activity inhibition test (ADP-Glo, luminescence); assay type: biochemical; settings: HPK1 5 nM, ATP 2 μM, read-out: IC50, inhibitory effects of compounds on HPK1 kinase activity
Method in brief: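 HPK1 autophosphorylation was run without added substrate. Kinase and compound were preincubated 10 min at 25° C., then ATP was added for 60 min at 25° C. ADP formed was detected by ADP-Glo luminescence, and IC50 was taken from a four-parameter nonlinear fit.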

[1] = Homo sapiens, Jurkat E6.1, test compound 3.0 μM, read-out: Percentage of the amount of IL-2 secreted from compound treated/DMSO-treated cells
[2] = Homo sapiens, Jurkat E6.1, read-out: Percentage of the amount of IL-2 secreted from compound treated/DMSO-treated cells

Chain of HPK1 (Q92918 whole entry): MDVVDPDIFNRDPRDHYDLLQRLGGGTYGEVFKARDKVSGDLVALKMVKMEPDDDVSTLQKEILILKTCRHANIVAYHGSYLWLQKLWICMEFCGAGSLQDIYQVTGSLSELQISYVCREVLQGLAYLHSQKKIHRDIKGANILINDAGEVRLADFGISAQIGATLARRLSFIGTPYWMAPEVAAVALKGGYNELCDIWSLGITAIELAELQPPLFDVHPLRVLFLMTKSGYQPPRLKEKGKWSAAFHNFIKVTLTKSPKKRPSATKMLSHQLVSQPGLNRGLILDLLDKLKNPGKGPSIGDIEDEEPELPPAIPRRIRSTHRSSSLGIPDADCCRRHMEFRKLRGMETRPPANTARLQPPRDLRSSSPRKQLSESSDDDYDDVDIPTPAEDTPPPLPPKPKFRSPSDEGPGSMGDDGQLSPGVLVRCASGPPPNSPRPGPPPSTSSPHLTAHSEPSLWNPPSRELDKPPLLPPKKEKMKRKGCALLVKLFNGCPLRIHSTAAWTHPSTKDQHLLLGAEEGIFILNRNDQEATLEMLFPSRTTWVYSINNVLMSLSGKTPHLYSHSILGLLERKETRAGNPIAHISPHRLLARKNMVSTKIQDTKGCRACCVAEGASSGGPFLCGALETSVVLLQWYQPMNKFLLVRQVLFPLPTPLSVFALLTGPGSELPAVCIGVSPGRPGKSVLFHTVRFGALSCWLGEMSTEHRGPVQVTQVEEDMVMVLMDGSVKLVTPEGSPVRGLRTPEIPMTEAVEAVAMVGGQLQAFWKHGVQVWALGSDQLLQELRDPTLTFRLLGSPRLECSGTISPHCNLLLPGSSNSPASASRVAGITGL

Compound | IC50 (HPK1) [µM] | activity at 3 µM (Human Jurkat-E6-1 cells; [1]) [%] | activity at 1 µM (Human Jurkat-E6-1 cells; [2]) [%] | activity at 0.33 µM (Human Jurkat-E6-1 cells; Homo sapiens, Jurkat E6.1, test compound 0.33 μM, read-out: Percentage of the amount of IL-2 secreted from compound treated/DMSO-treated cells) [%] | Percentage of the amount of IL-2 secreted from compound treated/DMSO-treated cells (Human Jurkat-E6-1 cells; test compound 3.0 μM) [%]
Cc1cccc(F)c1-n1nc2c(-c3ccc(N4CCN(C)CC4)cc3)n[nH]c2cc1=O [Compound 1, 5-(2-fluoro-6-methylphenyl)-3-(4-(4-methylpiperazin-1-yl)phenyl)-1H-pyrazolo[4,3-c]pyridazin-6(5H)-one] | ≤ 0.05 |  | 277 |  | 
COc1cccc(F)c1-n1nc2c(-c3ccc(N4CCN(C)CC4)cc3)n[nH]c2c(C)c1=O [Compound 154, 5-(2-fluoro-6-methoxyphenyl)-7-methyl-3-(4-(4-methylpiperazin-1-yl)phenyl)-1H-pyrazolo[4,3-c]pyridazin-6(5H)-one] | 0.05 to 0.5 |  | 382 |  | 
Cc1cccc(F)c1-n1nc2c(-c3ccc(N4CCC(N5CCN(C)CC5)CC4)cc3)n[nH]c2cc1=O [Compound 143, 5-(2-fluoro-6-methylphenyl)-3-(4-(4-(4-methylpiperazin-1-yl)piperidin-1-yl)phenyl)-1H-pyrazolo[4,3-c]pyridazin-6(5H)-one] | ≤ 0.05 | 786 |  |  | 
COc1cccc(F)c1-n1nc2c(-c3ccc(N4CCN(C)C(=O)C4)cc3)n[nH]c2cc1=O [Compound 33, 5-(2-fluoro-6-methoxyphenyl)-3-(4-(4-methyl-3-oxo-piperazin-1-yl)phenyl)-1H-pyrazolo [4,3-c]pyridazin-6(5H)-one] | ≤ 0.05 |  | 631 |  | 
Cc1cccc(F)c1-n1nc2c(-c3ccc(N4CC5CCC(C4)N5C)nc3)n[nH]c2cc1=O [Compound 109, 5-(2-fluoro-6-methylphenyl)-3-(6-(8-methyl-3,8-diazabicyclo[3.2.1]octan-3-yl)pyrid-3-yl)-1H-pyrazolo[4,3-c]pyridazin-6(5H)-one] | ≤ 0.05 | 491 |  |  | 
COc1cc(C#N)cc(F)c1-n1nc2c(-c3ccc(N4CCN(CCO)CC4)cc3)n[nH]c2cc1=O [Compound 114, 3-fluoro-4-(3-(4-(4-(2-hydroxyethyl)piperazin-1-yl)phenyl)-6-oxo-1H-pyrazolo[4,3-c]pyridazin-5(6H)-yl)-5-methoxybenzonitrile] | ≤ 0.05 | 309 |  |  | 
Cc1cccc(F)c1-n1nc2c(-c3ccc4c(c3)CN(C3CC(N)C3)CC4)n[nH]c2cc1=O (stereo not shown) [Compound 163] | 0.05 to 0.5 | 117 |  |  | 
[2H]C([2H])([2H])N1CCc2ccc(-c3n[nH]c4cc(=O)n(-c5c(C)cccc5F)nc34)cc2C1 [Compound 157, 5-(2-fluoro-6-methylphenyl)-3-(2-(methyl-d3)-1,2,3,4-tetrahydroisoquinolin-7-yl)-1H-pyrazolo[4,3-c]pyridazin-6(5H)-one] | ≤ 0.05 | 935 |  |  | 
COc1cccc(F)c1-n1nc2c(-c3ccc(N4CCN(C)C(C(C)(C)OC)C4)cc3)n[nH]c2cc1=O (stereo not shown) [Compound 127, 5-(2-fluoro-6-methoxyphenyl)-3-(4-(3-(2-methoxyprop-2-yl)-4-methylpiperazin-1-yl)phenyl)-1H-pyrazolo[4,3-c]pyridazin-6(5H)-one] | ≤ 0.05 | 758 |  |  | 
COc1cc(C#N)cc(F)c1-n1nc2c(-c3ccc(N4CCN(C)CC4)cc3)n[nH]c2cc1=O [Compound 74, 3-fluoro-5-methoxy-4-(3-(4-(4-methylpiperazin-1-yl)phenyl)-6-oxo-1H-pyrazolo[4,3-c]pyridazin-5(6H)-yl)benzonitrile] | ≤ 0.05 | 411 |  |  | 
CN1CCN(c2ccc(-c3n[nH]c4cc(=O)n(-c5ccccc5F)nc34)cc2)CC1 [Compound 6, 5-(2-fluorophenyl)-3-(4-(4-methylpiperazin-1-yl)phenyl)-1H-pyrazolo[4,3-c]pyridazin-6(5H)-one] | ≤ 0.05 |  | 185 |  | 
COc1cccc(F)c1-n1nc2c(-c3ccc(N4CCOCC4)nc3)n[nH]c2cc1=O [Compound 27, 5-(2-fluoro-6-methoxyphenyl)-3-(6-morpholinopyrid-3-yl)-1H-pyrazolo[4,3-c]pyridazin-6(5H)-one] | ≤ 0.05 |  |  | 302 | 
Cc1cccc(F)c1-n1nc2c(-c3ccc4c(c3)CN(C3CNC3)CC4)n[nH]c2cc1=O [Compound 164, 3-(2-(azetidin-3-yl)-1,2,3,4-tetrahydroisoquinolin-7-yl)-5-(2-fluoro-6-methylphenyl)-1H-pyrazolo[4,3-c]pyridazin-6(5H)-one hydrochloride] | 0.05 to 0.5 | 159 |  |  | 
Cc1cc(C#N)cc(F)c1-n1nc2c(-c3ccc(N4CCN(C(=O)[C@H](C)N)CC4)cc3)n[nH]c2cc1=O [Compound 82] | ≤ 0.05 | 195 |  |  | 
COc1cc(C#N)cc(F)c1-n1nc2c(-c3ccc(N4CCN(C5COC5)CC4)cc3)n[nH]c2cc1=O [Compound 86, 3-fluoro-5-methoxy-4-(3-(4-(4-(oxetan-3-yl)piperazin-1-yl)phenyl)-6-oxo-1H-pyrazolo[4,3-c]pyridazin-5(6H)-yl)benzonitrile] | ≤ 0.05 | 334 |  |  | 
CCS(=O)(=O)N1CCN(c2ccc(-c3n[nH]c4cc(=O)n(-c5c(C)cccc5F)nc34)cn2)CC1 [Compound 105] | ≤ 0.05 | 623 |  |  | 
Cc1cccc(F)c1-n1nc2c(-c3ccc(N4CCN(C5CCOC5)CC4)nc3)n[nH]c2cc1=O (stereo not shown) [Compound 106, 5-(2-fluoro-6-methylphenyl)-3-(6-(4-(tetrahydrofuran-3-yl)piperazin-1-yl)pyrid-3-yl)-1H-pyrazolo[4,3-c]pyridazin-6(5H)-one] | ≤ 0.05 | 833 |  |  | 
CCc1cccc(F)c1-n1nc2c(-c3ccc(N4CCN(C)CC4)nc3)n[nH]c2cc1=O [Compound 98, 5-(2-ethyl-6-fluorophenyl)-3-(6-(4-methylpiperazin-1-yl)pyrid-3-yl)-1H-pyrazolo[4,3-c]pyridazin-6(5H)-one] | ≤ 0.05 | 850 |  |  | 
COc1cccc(F)c1-n1nc2c(-c3cccc(N4CCCC(N)C4)c3)n[nH]c2cc1=O (stereo not shown) [Compound 204] | ≤ 0.05 |  |  |  | 260
COc1ccc(-n2nc3c(-c4ccc(N5CCN(C)CC5)cc4)n[nH]c3cc2=O)c(OC)c1 [Compound 25, 5-(2,4-dimethoxyphenyl)-3-(4-(4-methylpiperazin-1-yl)phenyl)-1H-pyrazolo[4,3-c]pyridazin-6(5H)-one] | 0.05 to 0.5 |  | 187 |  | 

Now from value to compound, other results behind:

IC50 (HPK1) [µM] | Compound | activity at 3 µM (Human Jurkat-E6-1 cells; [1]) [%] | activity at 1 µM (Human Jurkat-E6-1 cells; [2]) [%] | activity at 0.33 µM (Human Jurkat-E6-1 cells; Homo sapiens, Jurkat E6.1, test compound 0.33 μM, read-out: Percentage of the amount of IL-2 secreted from compound treated/DMSO-treated cells) [%] | Percentage of the amount of IL-2 secreted from compound treated/DMSO-treated cells (Human Jurkat-E6-1 cells; test compound 3.0 μM) [%]
≤ 0.05 | Cc1cccc(F)c1-n1nc2c(-c3ccc(N4C[C@@H](C)N(C)[C@@H](C)C4)cc3)n[nH]c2cc1=O [Compound 90, 5-(2-fluoro-6-methylphenyl)-3-(4-((3S,5R)-3,4,5-trimethylpiperazin-1-yl)phenyl)-1H-pyrazolo[4,3-c]pyridazin-6(5H)-one] | 667 |  |  | 
≤ 0.05 | COc1cccc(F)c1-n1nc2c(-c3ccc(N4CCN(CCO)CC4)cc3)n[nH]c2cc1=O [Compound 113, 5-(2-fluoro-6-methoxyphenyl)-3-(4-(4-(2-hydroxyethyl)piperazin-1-yl)phenyl)-1H-pyrazolo[4,3-c]pyridazin-6(5H)-one] | 368 |  |  | 
0.05 to 0.5 | Cc1cc(-c2n[nH]c3cc(=O)n(-c4c(C)cccc4F)nc23)cc(C)c1N1CCN(C)CC1 [Compound 13] | 315 |  |  | 
≤ 0.05 | COc1cccc(F)c1-n1nc2c(-c3cccc(N4CCN(C)CC4)c3)n[nH]c2cc1=O [Compound 199, 5-(2-fluoro-6-methoxyphenyl)-3-(3-(4-methylpiperazin-1-yl)phenyl)-1H-pyrazolo[4,3-c]pyridazin-6(5H)-one] |  | 328 |  | 
≤ 0.05 | CNC(=O)c1cc(F)c(-n2nc3c(-c4ccc(N5CCN(C)CC5)cc4)n[nH]c3cc2=O)c(OC)c1 [Compound 79, 3-fluoro-5-methoxy-N-methyl-4-(3-(4-(4-methylpiperazin-1-yl)phenyl)-6-oxo-1H-pyrazolo[4,3-c]pyridazin-5(6H)-yl)benzamide] | 361 |  |  | 
≤ 0.05 | Cc1cccc(F)c1-n1nc2c(-c3ccc(N4CCn5ccnc5C4)cc3)n[nH]c2cc1=O [Compound 137, 3-(4-(5,6-dihydroimidazolo[1,2-a]pyrazin-7(8H)-yl)phenyl)-5-(2-fluoro-6-methylphenyl)-1H-pyrazolo[4,3-c]pyridazin-6(5H)-one] | 291 |  |  | 
≤ 0.05 | Cc1cccc(F)c1-n1nc2c(-c3ccc(N4CCN(C)C(CO)C4)cc3)n[nH]c2cc1=O (stereo not shown) [Compound 120, 5-(2-fluoro-6-methylphenyl)-3-(4-(3-(hydroxymethyl)-4-methylpiperazin-1-yl)phenyl)-1H-pyrazolo[4,3-c]pyridazin-6(5H)-one] | 482 |  |  | 
0.05 to 0.5 | Cc1cccc(F)c1-n1nc2c(-c3ccc(N4C[C@H]5C[C@@H]4CN5C)cc3)n[nH]c2cc1=O [Compound 88, 5-(2-fluoro-6-methylphenyl)-3-(4-((1R,4R)-5-methyl-2,5-diazabicyclo[2.2.1]heptan-2-yl)phenyl)-1H-pyrazolo[4,3-c]pyridazin-6(5H)-one] | 550 |  |  | 
≤ 0.05 | COc1ccccc1-n1nc2c(-c3ccc(N4CCN(C)CC4)cc3)n[nH]c2cc1=O [Compound 3, 5-(2-methoxyphenyl)-3-(4-(4-methylpiperazin-1-yl)phenyl)-1H-pyrazolo[4,3-c]pyridazin-6(5H)-one] |  | 211 |  | 
